From patent US11746103B2, “ALK-5 inhibitors and uses thereof” (Sumitomo Pharma Oncology, Inc., priority 2020, dated 2023)

Key:
ALK-5 = ALK-5 (Homo sapiens (Human), UniProt P36897); assay: LanthaScreen Eu Kinase Binding Assay, ALK-5; conditions: for IC50: read-out: Kinase Inhibition: ALK5 IC50
Method: Activity determinations and selectivity were conducted by Thermo Fisher Scientific “SelectScreen™ Biochemical Kinase Profiling Service” using their “LanthaScreen™ Eu Kinase Binding Assay Screening” (www.thermofisher.com/selectscreen). Binding of an Alexa Fluor™ conjugate or “tracer” to a kinase is detected by addition of a Eu-labeled anti-tag antibody. Binding of the tracer and antibody to a kinase results in a high degree of FRET, whereas displacement of the tracer with a kinase inhibitor results in a loss of FRET. This assay is carried out by mixing the compound tested with the reagents and reading, no development step is required. Life Technologies' Kinase Tracers are based on ATP-competitive kinase inhibitors, making them suitable for detection of any compounds that bind to the ATP site. Inhibitors that bind the ATP site include both Type I kinase inhibitors, which bind solely to the ATP site, and Type II inhibitors (e.g., Gleevec®/Imatinib, Sorafenib, BIRB-796), which bind to both the ATP site and a second site often referred to as the allosteric site. […] For 10 point titrations, 3-fold serial dilutions are conducted from the starting concentration (see Table 2 below). [table] All Kinase/Antibody Mixtures are diluted to a 2× working concentration in the specified kinase buffer. The 4× AlexaFluor labeled Tracer is prepared in Kinase Buffer. Bar-coded, low volume, white 384-well plate (Greiner Cat. #784207) […] 2. 3.84 μL—Kinase Buffer […] 4. 4.0 μL—4× Tracer 5. 30-second plate shake 6. 60-minute incubation at room temperature 7. […] The LanthaScreen Eu Kinase Binding Assay data is analyzed using the equations in Table 3 for each set of data points. [table] Data generated were plotted using the graphing software XLfit from IDBS. The dose response curve is curve fit to model number 205.

[1] = system: TGF-beta induced SMAD signaling; assay: RDSR (RD SMAD reporter) Cellular Reporter Assay; format: cell-based; conditions: Homo sapiens; 200 pg/ml rhTGF-beta1, 24 h; read-out: RD-SMAD reporter activity
Description: TGF-β signaling is triggered when the activated TGF-β homodimer binds to the TGF-β receptor 2, which in turn leads to the recruitment and phosphorylation of TGF-β receptor 1 (ALK5). Activated TGF-β receptor 1 phosphorylates the signal transduction molecules SMAD2 and SMAD3. These bind to common mediator SMAD4 and translocate to the nucleus where they bind to short conserved DNA sequences called the SMAD binding element and induce the transcription of various target genes. […] Certain example compounds were also or alternatively assayed using the RDSR Cellular Reporter Assay. Overview and Design: The RD SMAD reporter (RDSR) cell line was generated by stabily integrating the SMAD cellular reporter plasmid (Promega, pGL4.48[luc2P/SBE/Hygro]) into the human rhabdomyosarcoma cell line RD (ATCC, CCL-136). Once SMAD signaling is triggered, with, for example, the addition of TGF-β 1, receptor activated SMADs bind the SMAD binding elements (SBEs) leading to the expression of intracellular luciferase. To determine the potency of compounds at inhibiting TGF-beta induced SMAD signaling, the RDSR reporter system was utilized. The rhabdomyosarcoma line RD (ATCC, CCL-136) was transfected with a SMAD reporter vector (Promega, E3671) and a polyclonal stable cell line was selected using hygromycin B. The transfected vector contains three copies of a SMAD-binding element (SBE) that drive transcription of the luciferase reporter gene luc2P (Photinus pyralis). luc2P is a synthetically-derived luciferase sequence with humanized codon optimization that is designed for high expression and reduced anomalous transcription. The luc2P gene contains hPEST, a protein destabilization sequence, which allows luc2P protein levels to respond more quickly than those of luc2 to induction of transcription. The intracellular luciferase is quantified by the addition of equal volume (100 μl) of ONE-GLO substrate (Promega, E6120) and read within ten minutes on the Envision plate reader. The stable RDSR cell line was tested by evaluating the response to human TGF-β1 (R&D Systems, 7754-BH-005) as well as human myostatin (R&D Systems, 788-G8-010/CF) in a concentration dependent manner after twenty-four hours of stimulation. […] For compound evaluation, the tool drugs Galunisertib and Vactosertib were included as positive controls. The tool drugs and the compounds of the invention being tested were all incubated with cells for one hour at 37° C. before stimulation with 200 pg/ml rhTGF-beta1 for twenty-four hours. The activity of the reporter was determined with the addition of ONE-GLO (Promega) substrate and luminescence counts collected on the Envision plate reader (Perkin Elmer). […] The activity of compounds of the invention as determined using this method are reported in the third column of Table 1, below.

Chain of ALK-5 (P36897 34-503): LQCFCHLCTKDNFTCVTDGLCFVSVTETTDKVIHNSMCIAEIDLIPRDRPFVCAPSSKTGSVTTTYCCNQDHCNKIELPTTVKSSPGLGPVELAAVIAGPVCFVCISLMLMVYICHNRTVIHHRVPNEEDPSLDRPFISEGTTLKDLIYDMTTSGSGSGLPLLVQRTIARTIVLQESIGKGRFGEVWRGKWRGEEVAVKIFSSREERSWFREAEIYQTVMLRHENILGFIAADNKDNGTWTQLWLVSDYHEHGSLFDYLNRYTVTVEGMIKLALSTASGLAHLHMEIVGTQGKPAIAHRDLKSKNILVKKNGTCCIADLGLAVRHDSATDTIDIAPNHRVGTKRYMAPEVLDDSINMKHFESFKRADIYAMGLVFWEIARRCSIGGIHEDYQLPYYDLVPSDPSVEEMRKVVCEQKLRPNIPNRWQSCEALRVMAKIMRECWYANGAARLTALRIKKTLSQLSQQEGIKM

Row | Structure (SMILES) | Kinase Selectivity: ALK2 IC50/ ALK5 IC50 (ALK-5) | IC50 (ALK-5) [nM] | IC50 [1] [nM]
1 | Cc1cccc2c(Nc3nc(Nc4ccc(N5CCN(C)CC5)cc4)ncc3F)cnnc12 [EX-32, 5-fluoro-N4-(8-methylcinnolin-4-yl)-N2-(4-(4-methylpiperazin-1-yl)phenyl)pyrimidine-2,4-diamine] | (++) (10<ALK2/ALK5<100=[++]) | 10 to 100 | 100 to 1000
2 | Cc1cccc2c(Nc3ccnc(Nc4cccc(C5CCNCC5)c4)n3)cnnc12 [EX-36, N4-(8-methylcinnolin-4-yl)-N2-(3-(piperidin-4-yl)phenyl)pyrimidine-2,4-diamine] | (+) (≤10=[+]) | < 10 | < 100
3 | Cc1cccc2c(Nc3ccnc(Nc4ccc(N5CCN(CCO)CC5)cc4)n3)cnnc12 [EX-37, 2-(4-(4-((4-((8-methylcinnolin-4-yl)amino)pyrimidin-2-yl)amino)phenyl)piperazin-1-yl)ethan-1-ol] | (++) (10<ALK2/ALK5<100=[++]) | < 10 | < 100
4 | Cc1cccc2c(Nc3ccnc(Nc4ccc(F)c(N5CCOCC5)c4)n3)cnnc12 [EX-38, N2-(4-fluoro-3-morpholinophenyl)-N4-(8-methylcinnolin-4-yl)pyrimidine-2,4-diamine] | (++) (10<ALK2/ALK5<100=[++]) | 10 to 100 | < 100
5 | Cc1cccc2c(Nc3ccnc(Nc4cc(N5CCOCC5)cc(C(F)(F)F)c4)n3)cnnc12 [EX-39, N4-(8-methylcinnolin-4-yl)-N2-(3-morpholino-5-(trifluoromethyl)phenyl)pyrimidine-2,4-diamine] | (+) (≤10=[+]) | < 10 | 100 to 1000
6 | Cc1c(F)ccc2c(Nc3ccnc(Nc4cccc(N5CCOCC5)c4)n3)cnnc12 [EX-40, N4-(7-fluoro-8-methylcinnolin-4-yl)-N2-(3-morpholinophenyl)pyrimidine-2,4-diamine] | (++) (10<ALK2/ALK5<100=[++]) | < 10 | < 100
7 | Cc1c(F)ccc2c(Nc3ccnc(Nc4ccc(N5CCOCC5)cc4)n3)cnnc12 [EX-41, N4-(7-fluoro-8-methylcinnolin-4-yl)-N2-(4-morpholinophenyl)pyrimidine-2,4-diamine] | (++) (10<ALK2/ALK5<100=[++]) | < 10 | < 100
8 | Cc1cccc2c(Nc3ccnc(Nc4cc(F)cc(CN5CCN(C)CC5)c4)n3)cnnc12 [EX-42, N2-(3-fluoro-5-((4-methylpiperazin-1-yl)methyl)phenyl)-N4-(8-methylcinnolin-4-yl)pyrimidine-2,4-diamine] | (+) (≤10=[+]) | < 10 | 100 to 1000
9 | Cc1cccc2c(Nc3ccnc(Nc4cc(F)cc(CC5CCN(C)CC5)c4)n3)cnnc12 [EX-43, N2-(3-fluoro-5-((1-methylpiperidin-4-yl)methyl)phenyl)-N4-(8-methylcinnolin-4-yl)pyrimidine-2,4-diamine] | (+) (≤10=[+]) | < 10 | 100 to 1000
10 | Cc1cccc2c(Nc3ccnc(Nc4cc(F)cc(N5CCOCC5)c4)n3)cnnc12 [EX-44, N2-(3-fluoro-5-morpholinophenyl)-N4-(8-methylcinnolin-4-yl)pyrimidine-2,4-diamine] | (++) (10<ALK2/ALK5<100=[++]) | < 10 | < 100
11 | Cc1cccc2c(Nc3ccnc(Nc4ccc(N5CC6CC5CN6C)cc4)n3)cnnc12 (stereo not drawn) [EX-45, N2-(4-(5-methyl-2,5-diazabicyclo[2.2.1]heptan-2-yl)phenyl)-N4-(8-methylcinnolin-4-yl)pyrimidine-2,4-diamine] | (++) (10<ALK2/ALK5<100=[++]) | < 10 | < 100
12 | Cc1cccc2c(Nc3ccnc(Nc4ccc(C5CCOCC5)cc4)n3)cnnc12 [EX-46, N4-(8-methylcinnolin-4-yl)-N2-(4-(tetrahydro-2H-pyran-4-yl)phenyl)pyrimidine-2,4-diamine] | (++) (10<ALK2/ALK5<100=[++]) | < 10 | < 100
13 | Cc1cccc2c(Nc3ccnc(Nc4cccc(CN5CCOCC5)c4)n3)cnnc12 [EX-47, N4-(8-methylcinnolin-4-yl)-N2-(3-(morpholinomethyl)phenyl)pyrimidine-2,4-diamine] | (++) (10<ALK2/ALK5<100=[++]) | < 10 | < 100
14 | Cc1cccc2c(Nc3ccnc(Nc4ccc(N5CCNCC5)cc4)n3)cnnc12 [EX-48, N4-(8-methylcinnolin-4-yl)-N2-(4-(piperazin-1-yl)phenyl)pyrimidine-2,4-diamine] | (++) (10<ALK2/ALK5<100=[++]) | < 10 | < 100
15 | CN1CCN(c2ccc(Nc3nccc(Nc4cnnc5c(Cl)cccc45)n3)cc2)CC1 [EX-49, N4-(8-chlorocinnolin-4-yl)-N2-(4-(4-methylpiperazin-1-yl)phenyl)pyrimidine-2,4-diamine] | (++) (10<ALK2/ALK5<100=[++]) | < 10 | < 100

Next, values leading:

Row | Kinase Selectivity: ALK2 IC50/ ALK5 IC50 (ALK-5) | IC50 (ALK-5) [nM] | IC50 [1] [nM] | Structure (SMILES)
16 | (++) (10<ALK2/ALK5<100=[++]) | < 10 | < 100 | Cc1cccc2c(Nc3ccnc(Nc4ccc(CN5CCN(C)CC5)c(C(F)(F)F)c4)n3)cnnc12 [EX-28, N4-(8-methylcinnolin-4-yl)-N2-(4-((4-methylpiperazin-1-yl)methyl)-3-(trifluoromethyl)phenyl)pyrimidine-2,4-diamine]
17 | (++) (10<ALK2/ALK5<100=[++]) | < 10 | < 100 | Cc1cccc2c(Nc3ccnc(Nc4ccc(Cl)cc4)n3)cnnc12 [EX-29, N2-(4-chlorophenyl)-N4-(8-methylcinnolin-4-yl)pyrimidine-2,4-diamine]
18 | (+) (≤10=[+]) | < 10 | < 100 | Cc1cccc2c(Nc3ccnc(Nc4cccc(CN5CCNCC5)c4)n3)cnnc12 [EX-31, N4-(8-methylcinnolin-4-yl)-N2-(3-(piperazin-1-ylmethyl)phenyl)pyrimidine-2,4-diamine]
19 | (++) (10<ALK2/ALK5<100=[++]) | < 10 | < 100 | Cc1cccc2c(Nc3ccnc(Nc4ccc(N5CCN(C)CC5)cc4)n3)cnnc12 [EX-33, N4-(8-methylcinnolin-4-yl)-N2-(4-(4-methylpiperazin-1-yl)phenyl)pyrimidine-2,4-diamine]
20 | (++) (10<ALK2/ALK5<100=[++]) | < 10 | < 100 | Cc1cccc2c(Nc3ccnc(Nc4ccc(N5CCN(C)CC5)c(Cl)c4)n3)cnnc12 [EX-34, N2-(3-chloro-4-(4-methyl-piperazin-1-yl)-phenyl)-N4-(8-methylcinnolin-4-yl)pyrimidine-2,4-diamine]
21 | (+) (≤10=[+]) | < 10 | < 100 | Cc1cccc2c(Nc3ccnc(Nc4cccc(S(N)(=O)=O)c4)n3)cnnc12 [EX-35, 3-((4-((8-methylcinnolin-4-yl)amino)-pyrimidin-2-yl)amino)benzenesulfonamide]
